Assay results: patent US20250064992A1, “IMAGING METHOD FOR DESIGNER RECEPTOR, ANTAGONIST OR AGONIST, PHARMACEUTICAL, AND COMPANION DIAGNOSTIC AGENT” (priority 2018, published 2025)

What was measured:
[1] = biological target: T1, hM3D receptor (Homo sapiens, UniProt P20309, A239G/Y149C); format: in vivo; conditions: Macaca mulatta
T1 construct: expressed in transfected cells; host or cells: neurons of the left amygdala of live Macaca mulatta, transduced with AAV2-CMV-hM3D
Procedure: (§1) The head of Macaca mulatta (male/4.2 kg) was fixed to a stereotaxic instrument under general anesthesia, 3 μL of an adeno-associated virus (AAV) vector (AAV2-CMV-hM3D) for expressing an hM3D receptor in a nerve cell-specific manner was injected for 12 minutes by a Hamilton syringe (10 μL) into a middle portion of the left amygdala read from a magnetic resonance imaging (MRI) image taken in advance. Note that, here, the CMV was a promotor for gene expression.
(§2) On the day 57 days after the injection, the [^11C]C22b (277 MBq) serving as a radiolabeled tracer was intravenously administered under isoflurane anesthesia and subjected to PET scanning for 90 minutes.

[2] = tested on: hM3D receptor; format: in vivo; conditions: Macaca mulatta
Procedure: as §1, §2

[3] = biological target: T2, hM4D (Homo sapiens, UniProt P08173, A203G/Y113C); test: PET imaging of axon terminal (substantia nigra pars reticulata), projection target of hM4D-expressing nerve cell in right putamen; format: in vivo; conditions: Japanese macaque, PET average image 30 to 90 minutes after tracer
T2 construct: expressed in transfected cells; host or cells: neurons of the right putamen of a live Japanese macaque, transduced with AAV2-CMV-hM4D
T2 sequence (P08173 1-479 Y113C/A203G): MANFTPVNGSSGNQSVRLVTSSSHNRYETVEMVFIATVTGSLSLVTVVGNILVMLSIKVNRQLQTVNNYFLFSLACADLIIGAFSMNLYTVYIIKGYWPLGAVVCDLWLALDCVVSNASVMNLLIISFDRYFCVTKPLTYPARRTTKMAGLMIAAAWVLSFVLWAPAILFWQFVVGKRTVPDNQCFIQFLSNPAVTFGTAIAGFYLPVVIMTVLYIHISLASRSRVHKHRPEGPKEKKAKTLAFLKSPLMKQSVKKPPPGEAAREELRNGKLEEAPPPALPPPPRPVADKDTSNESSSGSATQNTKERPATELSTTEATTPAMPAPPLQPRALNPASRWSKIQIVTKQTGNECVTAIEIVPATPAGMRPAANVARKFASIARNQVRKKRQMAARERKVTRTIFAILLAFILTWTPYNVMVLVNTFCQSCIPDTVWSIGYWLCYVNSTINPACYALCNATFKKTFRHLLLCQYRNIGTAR
Procedure: (§3) Specifically, the [^11C]C22b was exogenously administered as a tracer in the same manner as in Example 1 and subjected to PET scanning for 90 minutes.
(§4) Specifically, the compound represented by […] ([^11C]C22b) was exogenously administered as a tracer and subjected to PET scanning for 90 minutes.

[4] = tested on: hM4D receptor; test: PET imaging with radiolabeled tracer, ligand binding potential image (cerebellum as reference region), hM4D expressed in right putamen; format: in vivo; conditions: Japanese macaque, PET 90 minutes, cerebellum BP determined as 1, non-injection region
Procedure: as §1, with “Japanese macaque (male/5.5” for “Macaca mulatta (male/4.2”, “and 6” for “3”, “(AAV2-CMV-hM4D)” for “(AAV2-CMV-hM3D)”, “hM4D” for “hM3D”, “right putamen” for “left amygdala”
(§5) On the day 427 days after the injection, a compound represented by Formula (II) (hereinafter may be referred to as [^11C]C22b) (364 MBq) serving as a radiolabeled tracer was intravenously administered under isoflurane anesthesia and subjected to PET scanning for 90 minutes.
(§6) An image of a ligand binding potential was created from PET data integrated for 90 minutes using the cerebellum as a reference region (the binding potential (BP) in the cerebellum was determined as 1).

[5] = biological target: T3, hM4D receptor (Homo sapiens, UniProt P08173, A203G/Y113C); test: as above; format: in vivo; parameters: expressed in transfected cells; host or cells: neurons of the right putamen of a live Japanese macaque, transduced with AAV2-CMV-hM4D; conditions: Japanese macaque
Procedure: as §1, with “Japanese macaque (male/5.5” for “Macaca mulatta (male/4.2”, “and 6” for “3”, “(AAV2-CMV-hM4D)” for “(AAV2-CMV-hM3D)”, “hM4D” for “hM3D”, “right putamen” for “left amygdala”
as §5, §6

[6] = biological target: T1, hM3D receptor; test: PET imaging with radiolabeled tracer, ligand binding potential image (cerebellum as reference region), hM3D expressed in left amygdala; format: in vivo; conditions: Macaca mulatta
Procedure: as §1, §2
(§7) An image of a ligand binding potential was created from PET data integrated for 90 minutes using the cerebellum as a reference region (the binding potential (BP) of the cerebellum was determined as 1). A portion shown by an arrow in FIG. 6 represents the left amygdala into which the AAV vector has been injected.

[7] = tested on: hM3D receptor; test: as above; format: in vivo; conditions: Macaca mulatta, PET 90 minutes, cerebellum BP determined as 1, non-injection region
Procedure: as §1, §2, §7

[8] = biological target: T3, hM4D receptor; conditions: Japanese macaque; for Selectivity (expressed region/unexpressed region): hM4D, ratio of tracer amount per volume; for hM4D-expressed region amount of uptake of tracer: right putamen, PET 30 to 90 minutes after administration
Procedure: (§8) The [^11C]C22b (Example 2) and [^11C]clozapine ([^11C]CLZ, Comparative Example 1) were compared for a property of visualizing hM4D expressed in the Japanese macaque used in Example 1. The hM4D receptor was expressed in the same manner as in Example 1.
(§9) An average image integrated from 30 to 90 minutes after administration of a tracer was created based on a standardized uptake value (SUV) and an amount of uptake in the brain was calculated from PET imaging taken from 30 to 90 minutes after the administration in the frontal plane including the right putamen in which the hM4D was expressed.

[9] = tested on: hM4D receptor; conditions: Japanese macaque, PET 30 to 90 minutes after administration; for Whole brain amount of uptake of tracer: SUV; for Control region (hM4D-unexpressed region) amount of uptake of tracer: left putamen
Procedure: as §8, §9

[10] = tested on: hM4D; test: PET imaging of axon terminal (substantia nigra pars reticulata), projection target of hM4D-expressing nerve cell in right putamen; format: in vivo; conditions: Japanese macaque, PET average image 30 to 90 minutes after tracer
Procedure: as §3, §4

[11] = biological target: T1, hM3D receptor; test: 18F-FDG PET glucose metabolism image after C22b 0.1 mg/kg, hM3D expressed in left amygdala; format: in vivo; conditions: Macaca mulatta
Procedure: On the day 65 days after the AAV vector was injected, a C22b compound (0.1 mg/kg) was intravenously administered to the same Macaca mulatta as in Example 3 under isoflurane anesthesia, 1 minute later, ^18F-FDG (263 MBq) was intravenously administered, and then subjected to PET scanning for 90 minutes. Note that, here, the C22b compound was HY-42110 (manufactured by MedChem Express) which was the compound represented by Formula (III) in which R^1 was methyl, X was imino, and R^2 was hydrogen.
A glucose metabolism image (whole Brain Activity) when an average in the whole brain was determined as 100% was created from PET data integrated for 90 minutes.

[12] = biological target: T1, hM3D receptor; test: 18F-FDG PET glucose metabolism, C22b 1 μg/kg versus solvent, one-way repeated measures ANOVA, hM3D in left amygdala; format: in vivo, monkey; conditions: Macaca mulatta
Procedure: Then, the AAV vector was injected into Macaca mulatta different from in Example 3 (male, 3 kg) in the same manner as in Example 3. On the day 70 days after, a C22b compound solution (1 μg/kg) or a solvent was intravenously administered under isoflurane anesthesia, 1 minute later, ^18F-FDG (224 to 286 MBq) was intravenously administered, and then subjected to PET scanning for 120 minutes. The process was performed four times for each intravenous dose. Note that the solvent was the same as a solvent used for the C22b compound solution (solvent: 0.1 mL/kg of saline containing 1% dimethyl sulfoxide and 5% Tween 20 (surfactant)).
A glucose metabolism image (whole brain activity) when an average of the whole brain was determined as 100% was created from PET data integrated from 30 minutes to 60 minutes after the administration. Then, a site in which the C22b administration caused a statistically significant change compared to a solvent administration was analyzed by one-way repeated measures ANOVA using MATLAB (R2016a) and SPM12.

T1 sequence (P20309 whole entry Y149C/A239G, the tested form may be a part): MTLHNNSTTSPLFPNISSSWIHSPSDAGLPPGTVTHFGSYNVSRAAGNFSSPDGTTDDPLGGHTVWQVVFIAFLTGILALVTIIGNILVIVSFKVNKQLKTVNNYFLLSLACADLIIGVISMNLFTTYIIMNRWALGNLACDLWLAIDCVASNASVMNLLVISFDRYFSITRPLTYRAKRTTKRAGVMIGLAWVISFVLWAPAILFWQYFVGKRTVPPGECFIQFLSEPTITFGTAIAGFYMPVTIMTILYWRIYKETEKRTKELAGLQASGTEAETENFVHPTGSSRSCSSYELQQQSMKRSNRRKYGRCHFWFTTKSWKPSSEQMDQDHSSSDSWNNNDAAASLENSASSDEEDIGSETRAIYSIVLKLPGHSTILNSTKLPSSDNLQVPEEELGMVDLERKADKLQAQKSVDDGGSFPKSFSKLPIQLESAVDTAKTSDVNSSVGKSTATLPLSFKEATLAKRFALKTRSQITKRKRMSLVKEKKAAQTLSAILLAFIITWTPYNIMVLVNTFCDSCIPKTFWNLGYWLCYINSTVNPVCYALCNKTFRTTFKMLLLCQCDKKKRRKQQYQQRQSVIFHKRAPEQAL

[11CH3]N1CCC(C2=Nc3ccccc3Nc3ccccc32)CC1 [[^11C]C22b]
Selectivity (expressed region/unexpressed region) ([1]; hM3D, ratio of tracer amount per volume): 1.45
hM3D-expressed region amount of uptake of tracer ([1]; left amygdala): 3.77 g/cc
Whole brain amount of uptake of tracer [2]: 2.42 g/cc
Control region (hM3D-unexpressed region) amount of uptake of tracer ([2]; opposite region): 2.60 g/cc
visualisation of hM4D in the axon terminal (substantia nigra pars reticulata) [3]: hM4D was confirmed to be expressed in the axon terminal
binding potential in control region (left putamen) [4]: 0.28
binding potential in the right putamen into which the AAV vector had been injected ([5]; i.v. tracer 364 MBq, PET 90 minutes, cerebellum BP determined as 1, hM4D-expressed region): 3.07
binding potential of injected region relative to non-injection region ([5]; right putamen (hM4D) vs left putamen): 11 times
binding potential in the left amygdala into which the AAV vector had been injected ([6]; i.v. tracer 277 MBq, PET 90 minutes, cerebellum BP determined as 1, hM3D-expressed region): 1.05
binding potential of injected region relative to non-injection region ([6]; left amygdala (hM3D) vs right amygdala): 3.4 times
binding potential in control region (right amygdala) [7]: 0.31
Selectivity (expressed region/unexpressed region) [8]: 2.31
hM4D-expressed region amount of uptake of tracer [8]: 6.32 g/cc
Whole brain amount of uptake of tracer [9]: 2.47 g/cc
Control region (hM4D-unexpressed region) amount of uptake of tracer [9]: 2.74 g/cc

CN1CCN(C2=Nc3cc(Cl)ccc3Nc3ccccc32)CC1 [[^11C]clozapine, [^11C]8-chloro-11-(4-methylpiperazine-1-yl)-5H-dibenzo[b,e] [1,4]diazepine, reference compound]
binding to other nerve cells or brain tissues (off-target) [10]: also allowed to bind to nerve cells other than the nerve cell of interest or brain tissues to some extent
visualisation of hM4D in the axon terminal (substantia nigra pars reticulata) [3]: hM4D was confirmed to be expressed in the axon terminal
Selectivity (expressed region/unexpressed region) [8]: 1.25
hM4D-expressed region amount of uptake of tracer [8]: 5.73 g/cc
Whole brain amount of uptake of tracer [9]: 3.24 g/cc
Control region (hM4D-unexpressed region) amount of uptake of tracer [9]: 4.57 g/cc

CN1CCN(C2=Nc3ccccc3Nc3ccccc32)CC1 [C22b]
glucose metabolism in left amygdala (AAV injected) relative to control region (right amygdala) ([11]; C22b 0.1 mg/kg i.v., 18F-FDG PET 90 minutes): 1.88 times
action at hM3D receptor ([11]; glucose metabolism activated in hM3D-expressing left amygdala): acted as an agonist
t-value for the AAV vector injected region (one-way repeated measures ANOVA) ([12]; C22b 1 μg/kg i.v. vs solvent, left amygdala): > 5.2
glucose metabolism activity in left amygdala, C22b versus solvent administration ([12]; C22b 1 μg/kg i.v., 18F-FDG PET 30 to 60 minutes, uncorrected p<0.001): significantly high
